Assay results from patent publication US20120178915A1, “PYRIMIDINE DERIVATIVES AND ANALOGS, PREPARATION METHOD AND USE THEREOF” (priority 2009, published 2012).
Values after ≈ are worked out from the molar mass of the structure shown. Read-outs that look alike come from different tables or passages of the source.

Columns and labels:
Format in all cases: cell-based
Bacillus cereus 2 = experiment: microbe, parasite or virus in culture; conditions: 37° C., 24 h, read-out: Minimum Inhibitory Concentration, MIC
Bacillus cereus 246 = experiment: microbe, parasite or virus in culture; conditions: 37° C., 24 h, read-out: Minimum Inhibitory Concentration, MIC
Bacillus subtilis 82 = experiment: microbe, parasite or virus in culture; conditions: 37° C., 24 h, read-out: Minimum Inhibitory Concentration, MIC
Bacillus subtilis 168 = experiment: microbe, parasite or virus in culture; conditions: 37° C., 24 h, read-out: Minimum Inhibitory Concentration, MIC
[1] = test system: Enterococcus faecalis 29212; experiment: microbe, parasite or virus in culture; conditions: 37° C., 24 h, read-out: Minimum Inhibitory Concentration, MIC
[2] = test system: Enterococcus faecalis 51299; experiment: microbe, parasite or virus in culture; conditions: Enterococcus faecalis, 51299, 24 h, read-out: Minimum Inhibitory Concentration, MIC
[3] = test system: Enterococcus faecalis 19433; experiment: microbe, parasite or virus in culture; conditions: 37° C., 24 h, read-out: Minimum Inhibitory Concentration, MIC
[4] = test system: Enterococcus faecalis F2518 (VRE); experiment: microbe, parasite or virus in culture; conditions: 24 h, read-out: Minimum Inhibitory Concentration, MIC
[5] = test system: Enterococcus fecal F631 (VRE); experiment: organism not typed; conditions: 24 h, read-out: Minimum Inhibitory Concentration, MIC
[6] = test system: Enterococcus faecalis 1513 (VRE); experiment: microbe, parasite or virus in culture; conditions: 24 h, read-out: Minimum Inhibitory Concentration, MIC
[7] = test system: Enterococcus faecalis 583 (VRE); experiment: microbe, parasite or virus in culture; conditions: 24 h, read-out: Minimum Inhibitory Concentration, MIC
[8] = test system: Staphylococcus aureus 29231; experiment: microbe, parasite or virus in culture; conditions: 37° C., 24 h, read-out: Minimum Inhibitory Concentration, MIC
[9] = test system: Staphylococcus aureus 43300 (MRSA); experiment: microbe, parasite or virus in culture; conditions: 24 h, read-out: Minimum Inhibitory Concentration, MIC
[10] = test system: Staphylococcus aureus 703 (MRSA); experiment: microbe, parasite or virus in culture; conditions: 24 h, read-out: Minimum Inhibitory Concentration, MIC
[11] = test system: Staphylococcus aureus 704 (MRSA); experiment: microbe, parasite or virus in culture; conditions: 24 h, read-out: Minimum Inhibitory Concentration, MIC
[12] = test system: Staphylococcus aureus 705 (MRSA); experiment: microbe, parasite or virus in culture; conditions: 24 h, read-out: Minimum Inhibitory Concentration, MIC
[13] = test system: Streptococcus pneumoniae 6303 (PRSP); experiment: microbe, parasite or virus in culture; conditions: 24 h, read-out: Minimum Inhibitory Concentration, MIC
[14] = test system: Streptococcus pneumoniae 62; experiment: microbe, parasite or virus in culture; conditions: 37° C., 24 h, read-out: Minimum Inhibitory Concentration, MIC
[15] = test system: Streptococcus pneumoniae 6301; experiment: microbe, parasite or virus in culture; conditions: 37° C., 24 h, read-out: Minimum Inhibitory Concentration, MIC
[16] = test system: Streptococcus pneumoniae M2; experiment: microbe, parasite or virus in culture; conditions: 37° C., 24 h, read-out: Minimum Inhibitory Concentration, MIC
Pyogenic Streptococcus = experiment: microbe, parasite or virus in culture; conditions: 37° C., 24 h, read-out: Minimum Inhibitory Concentration, MIC
[17] = test system: Streptococcus agalactiae B; experiment: microbe, parasite or virus in culture; conditions: 37° C., 24 h, read-out: Minimum Inhibitory Concentration, MIC
green Streptococcus 1009 = experiment: microbe, parasite or virus in culture; conditions: 37° C., 24 h, read-out: Minimum Inhibitory Concentration, MIC
[18] = test system: Streptococcus bovis 10035; experiment: microbe, parasite or virus in culture; conditions: Streptococcus equinus, 37° C., 24 h, read-out: Minimum Inhibitory Concentration, MIC
Streptococcus 10342 = experiment: MIC broth microdilution; conditions: 37° C., 24 h, read-out: Minimum Inhibitory Concentration, MIC
[19] = test system: Streptococcus pneumoniae 10351; experiment: microbe, parasite or virus in culture; conditions: 37° C., 24 h, read-out: Minimum Inhibitory Concentration, MIC
Bacillus anthracis 1 = experiment: microbe, parasite or virus in culture; conditions: Bacillus anthracis, 1, 24 h, read-out: Minimum Inhibitory Concentration, MIC
[20] = test system: Corynebacterium diphtheriae; experiment: microbe, parasite or virus in culture; conditions: 37° C., 24 h, read-out: Minimum Inhibitory Concentration, MIC
Clostridium tetani = experiment: microbe, parasite or virus in culture; conditions: 24 h
Clostridium perfringens = experiment: microbe, parasite or virus in culture; conditions: 24 h, read-out: Minimum Inhibitory Concentration, MIC
Oral candidiasis = experiment: MIC broth microdilution; conditions: Microorganism 32, Oral candidiasis; 37° C., 24 h; read-out: Minimum Inhibitory Concentration, MIC
MIC broth microdilution = conditions: Microorganism 33, Dermatophytosis; 37° C., 24 h; read-out: Minimum Inhibitory Concentration, MIC
Gram-positive Bacteria = conditions: Enterococcus faecalis (VRE), Staphylococcus aureus (MRSA), Streptococcus pneumoniae 6303 (PRSP); Bacillus cereus, Bacillus subtilis, Enterococcus faecalis, Staphylococcus aureus, Streptococcus pneumoniae, Streptococcus agalactiae B and streptococci 4
[21] = read-out: Minimum Inhibitory Concentration, MIC, Microorganism 29, Clostridium tetani, 37° C.
[22] = read-out: Minimum Inhibitory Concentration, MIC, Microorganism 30, Clostridium tetani (second line of that name), 37° C.

Row | SMILES | MIC (Bacillus cereus 2) [µM] | MIC (Bacillus cereus 246) [µM] | MIC (Bacillus subtilis 82) [µM] | MIC (Bacillus subtilis 168) [µM] | MIC [1] [µM] | MIC [2] [µM] | MIC [3] [µM] | MIC [4] [µM] | MIC [5] [µM] | MIC [6] [µM] | MIC [7] [µM] | MIC [8] [µM] | MIC [9] [µM] | MIC [10] [µM] | MIC [11] [µM] | MIC [12] [µM] | MIC [13] [µM] | MIC [14] [µM] | MIC [15] [µM] | MIC [16] [µM] | also measured
1 | Nc1nc(-c2ccccc2)nc2c1cnn2-c1ccccc1 [Compound 38] | 124 (≈ 35.5 µg/mL) | 154 (≈ 44.3 µg/mL) | 120 (≈ 34.5 µg/mL) | 212 (≈ 61.1 µg/mL) | 145 (≈ 41.7 µg/mL) | 106 (≈ 30.6 µg/mL) | 108 (≈ 31.2 µg/mL) | 116 (≈ 33.2 µg/mL) | 151 (≈ 43.4 µg/mL) | 150 (≈ 43.2 µg/mL) | 160 (≈ 46.1 µg/mL) | 100 (≈ 28.8 µg/mL) | 210 (≈ 60.4 µg/mL) | 215 (≈ 61.8 µg/mL) | 160 (≈ 46.1 µg/mL) | 210 (≈ 60.4 µg/mL) | 125 (≈ 35.9 µg/mL) | 140 (≈ 40.4 µg/mL) | 141 (≈ 40.4 µg/mL) | 156 (≈ 44.9 µg/mL) | MIC (Pyogenic Streptococcus): 126 µM (≈ 36.3 µg/mL); MIC [17]: 105 µM (≈ 30.2 µg/mL); MIC (green Streptococcus 1009): 101 µM (≈ 29.1 µg/mL); MIC [18]: 121 µM (≈ 34.9 µg/mL); MIC (Streptococcus 10342): 131 µM (≈ 37.7 µg/mL); MIC [19]: 136 µM (≈ 39.2 µg/mL); MIC (Bacillus anthracis 1): 266 µM (≈ 76.4 µg/mL); MIC [20]: 150 µM (≈ 43.2 µg/mL); MIC (Clostridium tetani; [21]): 160 µM (≈ 46.1 µg/mL); MIC (Clostridium tetani; [22]): 120 µM (≈ 34.6 µg/mL); MIC (Clostridium perfringens): 125 µM (≈ 35.9 µg/mL); MIC (Oral candidiasis): 150 µM (≈ 43.2 µg/mL); MIC (MIC broth microdilution): 121 µM (≈ 34.8 µg/mL)
2 | Cc1nn2c(=O)cc(-c3ccc(C(F)(F)F)nc3)[nH]c2c1-c1ccc(Cl)cc1Cl [Compound 8] | 0.65 (≈ 0.285 µg/mL) | 2.6 (≈ 1.14 µg/mL) | 1.35 (≈ 0.593 µg/mL) | 0.66 (≈ 0.29 µg/mL) | 0.66 (≈ 0.29 µg/mL) | 0.36 (≈ 0.158 µg/mL) | 11.5 (≈ 5.05 µg/mL) | 0.32 (≈ 0.141 µg/mL) | 0.04 (≈ 0.0176 µg/mL) | 0.16 (≈ 0.0703 µg/mL) | 0.31 (≈ 0.136 µg/mL) | 10.3 (≈ 4.52 µg/mL) | 0.6 (≈ 0.264 µg/mL) | 1.23 (≈ 0.54 µg/mL) | 10.3 (≈ 4.52 µg/mL) | 50.6 (≈ 22.2 µg/mL) | 1.23 (≈ 0.54 µg/mL) | 0.63 (≈ 0.277 µg/mL) | 2.5 (≈ 1.1 µg/mL) | 1.25 (≈ 0.549 µg/mL) | inhibition of growth (conclusion from MICs) (Gram-positive Bacteria): significantly inhibited the growth; MIC (Pyogenic Streptococcus): 0.63 µM (≈ 0.277 µg/mL); MIC [17]: 0.56 µM (≈ 0.246 µg/mL); MIC (green Streptococcus 1009): 0.3 µM (≈ 0.132 µg/mL); MIC [18]: 10.5 µM (≈ 4.61 µg/mL); MIC (Streptococcus 10342): 0.3 µM (≈ 0.132 µg/mL); MIC [19]: 0.04 µM (≈ 0.0176 µg/mL); MIC (Bacillus anthracis 1): 56.8 µM (≈ 24.9 µg/mL); MIC [20]: 30.3 µM (≈ 13.3 µg/mL); MIC (Clostridium tetani; [21]): 70.3 µM (≈ 30.9 µg/mL); MIC (Clostridium tetani; [22]): 50.6 µM (≈ 22.2 µg/mL); MIC (Clostridium perfringens): 61.3 µM (≈ 26.9 µg/mL); MIC (Oral candidiasis): 20.3 µM (≈ 8.92 µg/mL); MIC (MIC broth microdilution): 31.8 µM (≈ 14 µg/mL)
